Measurements taken from US8198317B2, “Methylenedioxy phenolic compounds and their use to treat disease” (The Ohio State University Research Foundation, priority 2008, dated 2012).

Key:
[1] = tested on: C57Bl/6 mice; assay: SREBP-2, LDLR and LDL in vivo in mice; set-up: species or system mouse; conditions: 20 mg/kg/day intraperitoneally, two weeks
Experimental: To study the effect of INV-75 on SREBP activity in vivo experiment was performed as follows: C57bl/6 mice (6/group) were intraperitoneally injected with INV-75 (20 mg/kg/day, for two weeks). The binding activity of SREBP2 in nuclear proteins of liver homogenates was measured by electrophoretic migration shift assay (EMSA). Simultaneously multiple genes involved in cholesterol synthesis and regulation, apolipoprotein gene expression and expression of PCSK9 (Proprotein convertase subtilisin/kexin type 9) were also studied in the liver. PCSK9 is known to regulate LDL receptor expression by binding to the epidermal growth factor-like repeat A (EGF-A) domain of the low-density lipoprotein receptor (LDLR), inducing LDLR degradation.

[2] = tested on: Watanabe Heritable Hyperlipidemic Rabbits (WHHL); assay: Morphometric analysis of atherosclerotic burden in WHHL rabbits; format: in vivo, rabbit; conditions: end of 12 weeks, H&E morphometry
Experimental: Segments of descending thoracic aorta were embedded in Optimal Cutting Temperature compound (Tissue-Tek, Sakura Finetek USA Inc, Torrance, Calif.) and frozen on dry ice. En face sections were then prepared. To analyze atherosclerotic burden, 8 sections (4 μm thick) were collected at intervals of 20 μm. After H&E staining, each section was digitized with a digital camera and analyzed using a microscope (Zeiss Axioskop with Spot I digital camera, Jena, Germany) with National Institutes of Health (NIH) Image software version 1.61. Results were expressed as mm^2. Morphometric assessment of plaque burden in the thoracic aorta at the end of 12 weeks corroborated the anti-atherosclerotic effects of INV-75 by MRI on the abdominal aorta. The summary of atherosclerotic burden in abdominal aorta of control and INV-75 groups of WHHL rabbits are presented. n=5/group. *, p<0.05 vs control animals, n=4, using un-paired t test. Approximately 60% reduction in atherosclerosis burden in WHHL rabbits compared to control group was observed (FIG. 9).

[3] = tested on: SREBP-2; assay: SREBP2 nuclear binding by EMSA in HepG2 cells; format: cell-based, human
Experimental: FIG. 5A is a graph showing in vitro time course of course of Sterol Regulatory and Binding Protein-2 (SREBP2) activity measurement with INV-75. HepG2 cells were stimulated with INV-75 (0.1 mM) for four hours and the binding activity of SREBP2 to nuclear proteins was measured by electrophoretic migration shift assay (EMSA). A total of three experiments were performed. *, p<0.01 by ANOVA compared to vehicle.
FIG. 5B is a graph showing the dose dependent effects of INV-75 on SREBP2 activity. HepG2 cells were stimulated with multiple concentrations of INV-75 for 1 hour and binding activity of SREBP2 in nuclear proteins was measured by electrophoretic migration shift assay (EMSA). A total of three experiments were performed. *, p<0.01 by ANOVA compared to vehicle.
A family of transcription factors designated SREBP (sterol regulatory element binding proteins) regulate synthesis of cholesterol and fatty acids. Of these, SREBP-2 mainly regulates cholesterol biosynthesis by alteration of cholesterol synthesis enzymes and LDL receptor expression (SREBP-1c mainly regulates fatty acid synthesis). […] The time course with this dose and dose dependence was analyzed. Next we assessed the expression of both precursor and mature form of SREBP-2 in the cytoplasm by western analysis. Both time course and dose dependence of mature form of SREBP-2 was analyzed.

[4] = biological target: T1, PPARγ (Homo sapiens, UniProt P37231); assay: GAL4-PPARγ-LBD luciferase assay in HepG2 cells; format: cell-based; conditions: 1 μM to 1000 μM
T1 construct: GAL4-PPARδ-LBD plasmid+UAS-Luciferase and GAL4-PPARα-LBD plasmid+UAS-Luciferase; expressed in transfected cells; host or cells: HepG2
Description: We used a reporter gene assay in HepG2 cells to screen for agonists of the peroxisome proliferator-activated receptors. Peroxisome proliferator-activated receptors (PPARs) and other members of the nuclear hormone receptor family are important drug targets for the treatment of metabolic diseases. PPARs play crucial roles in lipid and glucose metabolism, respectively. Therefore, screening methods that help to rapidly identify activators of these receptors should be of considerable value. INV-75 activated a classic PPARα gene, Acetyl-CoA Oxidase (ACO) in a dose dependent and time dependent fashion (FIG. 6A). The time course experiment was performed in presence of INV-75 up to 15 hours. […] We next tested the specificity of INV-75 for PPARα by performing experiments in HepG2 cells transfected with yeast GAL4-PPARα-LBD plasmid+UAS-Luciferase; GAL4-PPARδ-LBD plasmid+UAS-Luciferase and […]. The PPARα, PPARδ and PPARγ binding assays were performed using multiple concentrations of INV-75 (1 μM, 10 μM, 100 μM and 1000 μM). The level of luciferase activity corresponded to the degree of PPAR activation. The results were compared with classic PPAR agonists such as WY-14643 (PPARα agonist), Bezafibrate (PPARδ agonist) and Rosiglitazone ([…]).

[5] = tested on: Patient; assay: Treatment of a patient with chronic stable angina (Example 20); format: in vivo, human; conditions: oral, 1.0 to 100 mg/kg, two weeks
Experimental: A person with a prior history of a heart attack (myocardial infarction) 10 years ago presents for evaluation. They are complaining of anginal chest pains that are relived with one sub-lingual nitroglycerin and has had these pains chronically. The patient is administered a composition comprising an effective amount of oral 3,4-Methylenedioxy 6-nitro phenyl lipoate (INV-7465) (1.0 to 100 mg/kg). Alternate therapies include, 3,4-methylenedioxy phenyl acetate (INV 73); 3,4-methylenedioxy-6-nitrophenol (INV 74); 3,4-methylenedioxy-6-nitrophenyl acetate (INV 75); or 3,4-Methylenedioxy phenyl lipoate (INV-7065). Patient notes added benefit in their chest pains with this regimen after taking the medication for two weeks.

T1 sequence (P37231 238-503 limits assumed, species assumed): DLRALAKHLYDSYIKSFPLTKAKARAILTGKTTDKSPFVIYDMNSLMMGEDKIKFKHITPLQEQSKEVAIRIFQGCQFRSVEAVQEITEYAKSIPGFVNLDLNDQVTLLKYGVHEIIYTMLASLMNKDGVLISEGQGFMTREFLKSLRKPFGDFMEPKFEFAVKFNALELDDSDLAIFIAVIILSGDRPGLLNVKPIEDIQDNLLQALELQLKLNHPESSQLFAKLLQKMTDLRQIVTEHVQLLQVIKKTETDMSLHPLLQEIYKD

| effects on PPARγ [4] | SMILES | LDL [1] | LDL receptor expression in liver (real-time RT-PCR, western blot) [1] | SREBP2 activation in liver (EMSA) [1] | other lipoproteins [1] | reduction in atherosclerosis burden compared to control group [2] | time to increased nuclear binding of SREBP-2 ([3]; HepG2, 0.1 mM) [h] | dose effective in inducing translocation of SREBP-2 to the nucleus ([3]; HepG2, 1 hour) [nM] | chest pains [5] |
| --- | --- | --- | --- | --- | --- | --- | --- | --- | --- |
| without effects | CC(=O)Oc1cc2c(cc1[N+](=O)[O-])OCO2 [INV-75, 3,4-methylenedioxy-6-nitrophenyl acetate] | significantly lowered | increase | dramatically activated | not other lipoproteins | Approximately 60% | < 1 | ≥ 100 | – |
| – | O=C(CCCCC1CCSS1)Oc1cc2c(cc1[N+](=O)[O-])OCO2 (stereo not drawn) [INV-7465, 3,4-Methylenedioxy 6-nitro phenyl lipoate] | – | – | – | – | – | – | – | added benefit |
